These results are taken from patent US20020035061A1, “COMPOSITIONS AND METHODS FOR TREATING INFECTIONS USING CATIONIC PEPTIDES ALONE OR IN COMBINATION WITH ANTIBIOTICS” (priority 1996, published 2002).

Like-named read-outs stand apart in the source and are kept apart here.

Common to all, as to assay type: cell-based
In assay [1] the test system is S. aureus.
The subject of assay [2] is S. epidermidis.
In assay [3] the test system is S. maltophilia.
Assay [4] concerns S. marcescens.
In assay [5] the test system is A. calcoaceticus.
The test system of assay [6] is K. pneumoniae.
Assay [7] concerns E. cloacae.
Assay [8] relates to P. aeruginosa.
In assay [9] the test system is E. faecalis.
The test system of assay [10] is E. coli.

One may read the MIC as the smallest concentration in the dilution series that meets the test's criterion for growth inhibition.

WPWWPWRRK [MBI 11G27CN]: the MIC was 4 µg/mL in assay [1] (S. aureus SA014); 1 µg/mL in [1] (S. aureus SA093); 8 µg/mL in [2] (S. epidermidis SE010); 32 µg/mL in assay [3] (S. maltophilia SMA002); above 128 µg/mL in [4] (S. marcescens SMS003); 2 µg/mL in [5] (A. calcoaceticus AC002). For the same sequence, the MIC is 32 µg/mL in [6] (K. pneumoniae KP001); above 128 µg/mL in assay [7] (E. cloacae ECL007); 128 µg/mL in assay [8] (P. aeruginosa PA004); 8 µg/mL in assay [9] (E. faecalis EFS001); 32 µg/mL in assay [9] (E. faecalis EFS008); 16 µg/mL in assay [10] (E. coli ECO005).

Consider ILRRNPNNPNRRK [MBI 11B1CNW1], for which the MIC was 16 µg/mL in assay [1] (S. aureus strain SA014); 8 µg/mL in [2] (S. epidermidis strain SE010); 32 µg/mL in [3] (S. maltophilia strain SMA002); above 128 µg/mL in assay [4] (S. marcescens strain SMS003); 16 µg/mL in assay [5] (A. calcoaceticus strain AC002); 32 µg/mL in assay [6] (K. pneumoniae strain KP001). The MIC is 64 µg/mL in assay [7] (E. cloacae strain ECL007), 64 µg/mL in assay [8] (P. aeruginosa strain PA004), 8 µg/mL in assay [9] (E. faecalis strain EFS004) and 32 µg/mL in assay [10] (E. coli strain ECO005).

ILRWPWWPWARK [MBI 11H10CN]: the MIC was 4 µg/mL in [1] (S. aureus SA014); 1 µg/mL in [1] (S. aureus SA093); 4 µg/mL in [2] (S. epidermidis SE010); 64 µg/mL in assay [3] (S. maltophilia SMA002); above 128 µg/mL in assay [4] (S. marcescens SMS003); 4 µg/mL in assay [5] (A. calcoaceticus AC002). Also, the MIC in assay [6] (K. pneumoniae KP001) is 16 µg/mL; in [7] (E. cloacae ECL007) it was above 128 µg/mL; in [8] (P. aeruginosa PA004), above 128 µg/mL; in assay [9] (E. faecalis EFS001), 2 µg/mL; in [9] (E. faecalis EFS008) it was 8 µg/mL; in assay [10] (E. coli ECO005), 16 µg/mL.

As to WWRWPWWPWRRK [MBI 11A10CN], the MIC was 4 µg/mL in assay [1] (S. aureus strain SA014); 2 µg/mL in [1] (S. aureus strain SA093); 4 µg/mL in assay [2] (S. epidermidis strain SE010); 32 µg/mL in [3] (S. maltophilia strain SMA002); above 128 µg/mL in assay [4] (S. marcescens strain SMS003); 4 µg/mL in assay [5] (A. calcoaceticus strain AC002). Besides, the MIC in assay [6] (K. pneumoniae strain KP001) was 16 µg/mL; in assay [7] (E. cloacae strain ECL007), 64 µg/mL; in assay [8] (P. aeruginosa strain PA004), 64 µg/mL; in assay [9] (E. faecalis strain EFS001), 4 µg/mL; in assay [9] (E. faecalis strain EFS008), 16 µg/mL; in assay [10] (E. coli strain ECO005), 16 µg/mL.

On to CLRWPWWPWRRK [MBI 11D19CN], for which the MIC in assay [1] (S. aureus SA014) is 4 µg/mL; in assay [1] (S. aureus SA093) it was 2 µg/mL; in assay [2] (S. epidermidis SE010) it was 8 µg/mL; in assay [3] (S. maltophilia SMA002), 64 µg/mL; in assay [4] (S. marcescens SMS003) it was above 128 µg/mL; in assay [5] (A. calcoaceticus AC002), 8 µg/mL. The MIC is 32 µg/mL in assay [6] (K. pneumoniae KP001); above 128 µg/mL in assay [7] (E. cloacae ECL007); 128 µg/mL in [8] (P. aeruginosa PA004); 4 µg/mL in assay [9] (E. faecalis EFS001); 64 µg/mL in assay [9] (E. faecalis EFS008); 32 µg/mL in [10] (E. coli ECO005).

Consider ILRWAWWPWRRK [MBI 11H05CN], for which the MIC was 2 µg/mL in [1] (S. aureus SA014); 1 µg/mL in [1] (S. aureus SA093); 4 µg/mL in assay [2] (S. epidermidis SE010); 16 µg/mL in assay [3] (S. maltophilia SMA002); above 128 µg/mL in assay [4] (S. marcescens SMS003); 4 µg/mL in [5] (A. calcoaceticus AC002). The MIC in assay [6] (K. pneumoniae KP001) is 8 µg/mL; in assay [7] (E. cloacae ECL007), above 128 µg/mL; in [8] (P. aeruginosa PA004), 128 µg/mL; in [9] (E. faecalis EFS001), 2 µg/mL; in assay [9] (E. faecalis EFS008), 8 µg/mL; in assay [10] (E. coli ECO005), 8 µg/mL.

ILRWPWWPWRRA [MBI 11H12CN]: the MIC was 2 µg/mL in assay [1] (S. aureus SA014); 1 µg/mL in assay [1] (S. aureus SA093); 4 µg/mL in assay [2] (S. epidermidis SE010); 64 µg/mL in assay [3] (S. maltophilia SMA002); above 128 µg/mL in assay [4] (S. marcescens SMS003); 4 µg/mL in assay [5] (A. calcoaceticus AC002). Moreover, the MIC was 16 µg/mL in assay [6] (K. pneumoniae KP001); above 128 µg/mL in assay [7] (E. cloacae ECL007); above 128 µg/mL in assay [8] (P. aeruginosa PA004); 2 µg/mL in assay [9] (E. faecalis EFS001); 8 µg/mL in [9] (E. faecalis EFS008); 16 µg/mL in [10] (E. coli ECO005).

In the case of PRIWKPKWRLPKR [MBI 11J01CN], the MIC in [1] (S. aureus SA014) was 16 µg/mL; in [1] (S. aureus SA093) it was 2 µg/mL; in assay [2] (S. epidermidis SE010) it was 32 µg/mL; in assay [3] (S. maltophilia SMA002), above 128 µg/mL; in [4] (S. marcescens SMS003), above 128 µg/mL; in assay [5] (A. calcoaceticus AC002), 4 µg/mL. In addition, the MIC in assay [6] (K. pneumoniae KP001) is above 128 µg/mL; in [7] (E. cloacae ECL007), above 128 µg/mL; in assay [8] (P. aeruginosa PA004) it was above 128 µg/mL; in [9] (E. faecalis EFS001) it was 128 µg/mL; in assay [9] (E. faecalis EFS008), above 128 µg/mL; in assay [10] (E. coli ECO005) it was 64 µg/mL.

With ILKKNPNNPNRRK [MBI 11CNY1], the MIC was 16 µg/mL in assay [1] (S. aureus SA006); 128 µg/mL in [2] (S. epidermidis SE010); above 64 µg/mL in assay [3] (S. maltophilia SMA002); above 64 µg/mL in [4] (S. marcescens SMS003); above 64 µg/mL in assay [5] (A. calcoaceticus AC001); above 64 µg/mL in assay [6] (K. pneumoniae KP001). The MIC in assay [7] (E. cloacae ECL007), in [8] (P. aeruginosa PA004), in assay [9] (E. faecalis EFS004) and in assay [10] (E. coli ECO005) was above 64 µg/mL throughout.

Turning to ILRYVYYVYRRK [MBI 11A8CN], the MIC is 1 µg/mL in assay [1] (S. aureus strain SA093); 16 µg/mL in [2] (S. epidermidis strain SE010); 32 µg/mL in [3] (S. maltophilia strain SMA002); above 128 µg/mL in assay [4] (S. marcescens strain SMS003); 8 µg/mL in assay [5] (A. calcoaceticus strain AC002); 128 µg/mL in assay [6] (K. pneumoniae strain KP001). For the same sequence, the MIC in assay [7] (E. cloacae strain ECL007) is above 128 µg/mL; in assay [8] (P. aeruginosa strain PA004), above 128 µg/mL; in [9] (E. faecalis strain EFS001), 4 µg/mL; in [10] (E. coli strain ECO005) it was 32 µg/mL.

With ILRNPNNPNRRK [MBI 11B7ACN], the MIC in assay [1] (S. aureus strain SA014) was 2 µg/mL; in assay [1] (S. aureus strain SA093) it was 1 µg/mL; in assay [2] (S. epidermidis strain SE010), 4 µg/mL; in assay [3] (S. maltophilia strain SMA002, listed as MBI 11B7 ACN), 32 µg/mL; in assay [4] (S. marcescens strain SMS003) it was above 128 µg/mL; in assay [5] (A. calcoaceticus strain AC002, listed as MBI 11B7 ACN) it was 2 µg/mL. Moreover, the MIC is 8 µg/mL in [6] (K. pneumoniae strain KP001, listed as MBI 11B7 ACN); above 128 µg/mL in assay [7] (E. cloacae strain ECL007); 128 µg/mL in assay [8] (P. aeruginosa strain PA004, listed as MBI 11B7 ACN); 1 µg/mL in assay [9] (E. faecalis strain EFS001, listed as MBI 11B7 ACN); 8 µg/mL in assay [9] (E. faecalis strain EFS008); 8 µg/mL in assay [10] (E. coli strain ECO005, listed as MBI 11B7 ACN).

As to LWPWWPWRRK [MBI 11G24CN], the MIC in assay [1] (S. aureus SA014) was 2 µg/mL; in assay [1] (S. aureus SA093), 1 µg/mL; in assay [2] (S. epidermidis SE010), 4 µg/mL; in assay [3] (S. maltophilia SMA002) it was 32 µg/mL; in assay [4] (S. marcescens SMS003) it was above 128 µg/mL; in assay [5] (A. calcoaceticus AC002), 4 µg/mL. The MIC is 16 µg/mL in assay [6] (K. pneumoniae KP001); above 128 µg/mL in assay [7] (E. cloacae ECL007); 128 µg/mL in [8] (P. aeruginosa PA004); 2 µg/mL in assay [9] (E. faecalis EFS001); 8 µg/mL in [9] (E. faecalis EFS008); 16 µg/mL in [10] (E. coli ECO005).

As to ILRAPWWPWRRK [MBI 11H04CN], the MIC was 4 µg/mL in assay [1] (S. aureus SA014); 2 µg/mL in assay [1] (S. aureus SA093); 16 µg/mL in [2] (S. epidermidis SE010); above 128 µg/mL in [3] (S. maltophilia SMA002); above 128 µg/mL in assay [4] (S. marcescens SMS003); 8 µg/mL in assay [5] (A. calcoaceticus AC002). The MIC was 64 µg/mL in assay [6] (K. pneumoniae KP001); above 128 µg/mL in [7] (E. cloacae ECL007); above 128 µg/mL in assay [8] (P. aeruginosa PA004); 2 µg/mL in [9] (E. faecalis EFS001); 8 µg/mL in assay [9] (E. faecalis EFS008); 32 µg/mL in assay [10] (E. coli ECO005).
